Results taken from PubChem BioAssay AID1963439 (Molecular Pharmacology Branch, DTP, NCI, 2024).
pIC50: −log10 of the molar value.

Test system: NCI-H196 complex spheroids with HUVEC/MSC, growth % T/C
Experiment: Anticancer human tumor NCI-H196 cell line growth inhibition [Asc];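 further: spheroids exposed to compound for 7 days before measurement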;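 on viability, T/C: 100% = DMSO vehicle control wells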
Conditions: for pIC50: curve of first compound; for viability, T/C: stronger effect = lower value
Method: Multicellular complex tumor spheroid response to apoptosis pathway targeting inhibitors Alrizomadlin, Pelcitoclax, and Dasminapant in combination with a variety of drugs and investigational agents in selected tumor cell lines
The MDM2 inhibitor alrizomadlin, the Bcl-2/Bcl-xL inhibitor pelcitoclax, and the IAPs inhibitor dasminapant were evaluated both individually and in combination with standard of care and investigational anticancer small molecules within a complex spheroid model of solid tumors. . Complex spheroids include a stromal component modeled by human endothelial cells (HUVEC) and fibroblasts modeled by human mesenchymal stem cells (MSCs). The concentration ranges selected for each drug and investigational agent were based upon clinically achievable concentrations if the clinical Cmax of the agent was known.
Compounds. The drugs and investigational agents: alrizomadlin (APG-115; NSC831270), pelcitoclax (APG-1252; NSC835773), dasminapant (APG-1387;NSC834197), TAK-243 (NSC785004), copanlisib (NSC809693), olaparib (NSC753686), talazoparib (NSC767125), cobimetinib (NSC 768068), eltanexor (KPT-8602, NSC 794443), abemaciclib (NSC 768073), sotorasib (NSC818433), adagrasib (NSC 831453), MRTX-1133 (NSC 836407), Iadademestat (ORY1001, NSC 806812), and RMC-4630 (NSC839698), were obtained from the NCI Developmental Therapeutics Program Chemical Repository. The FDA-approved anticancer drug set is available from the Developmental Therapeutics Program at https://dtp.cancer.gov/organization/dscb/obtaining/available plates.htm. […] The stock solutions were prepared in dimethyl sulfoxide (DMSO, Sigma-Aldrich, St. Louis, MO, cat. D2650) at 800-fold the tested concentration and stored at -70 degrees C prior to their use. All drugs and investigational agents were tested over a range starting from a high concentration at or near the clinical Cmax and decreasing in half-log increments. If the clinical Cmax for an agent had not been determined, the highest concentration tested was 10 microM.
The patient-derived cancer (PDC) cell lines include five colon adenocarcinomas: 186277-243-T-J2-PDC, 616215-338-R-J1-PDC, 439559-082-T-J2-PDC, 463943-066-T-J2-PDC, and 519858-162-T-J1-PDC; three pancreatic carcinomas: 323965-272-R-J2-PDC, 521955-158-R6-J3-PDC, and 521955-158-R2-J5-PDC; two uterine sarcomas: 327498-152-R-J2-PDC and 993429-296-R-J1-PDC; two rhabdomyosarcomas: 755483-174-R-J1-PDC and 772245-204-R-J1-PDC; two soft tissue sarcomas: 126254-015-R-J1-PDC and 494315-158-R-J1-PDC; two malignant fibrous histiocytomas: 317291-083-R-J1-PDC and 596521-263-R-J1-PDC; two breast carcinomas: 171881-019-R-J1-PDC and 885512-296-R-J2-PDC; and one ovarian carcinoma: 6556581-035-R-J-PDC were obtained from the NCI PDMR, (https://pdmr.cancer.gov). The established cell lines HSSY-2 synovial sarcoma (RRID:CVCL 8719), SYO-1 synovial sarcoma (RRID:CVCL_7146), MPNST malignant peripheral neural sheath tumor were obtained from the Sloan Kettering Institute. The following established cell lines were purchased from the American Type Culture Collection (ATCC, Manassas, VA), Sor the received from the NCI repository:, PANC-1 pancreatic carcinoma (CRL-1469, RRID:CVCL_0480), OVCAR-5 ovarian carcinoma (RRID:CVCL_1628), OVCAR-8 ovarian carcinoma (RRID:CVCL_1629), , MCF-7 breast carcinoma (CRL-12584, RRID:CVCL_0031), MDA-MB-231 breast carcinoma (CRL-12532, RRID:CVCL_0062), NCI-H1876 small cell lung carcinoma (CRL-5902, RRID:CVCL_1503), NCI-H510A small cell lung carcinoma (HTB-184, RRID:CVCL_1565), NCI-H1417 (CRL-5869, RRID:CVCL_1469), and NCI-H196 small cell lung carcinoma (CRL-5823, RRID:CVCL_1509). Dr. Peter Houghton (Greehey Children's Cancer Research Institute, University of Texas Health Science Center, San Antonio, TX) provided Rh-18 rhabdomyosarcoma (RRID:CVCL_1659). Pooled donor human umbilical vein endothelial cells (HUVEC, Lonza, cat. CC-2519) and human mesenchymal stem cells (hMSC, Lonza, cat. PT-2501) were purchased from Lonza (Walkersville, MD).
Cell Culture. […]

NC1CCC(NC2CC2c2ccccc2)CC1 (stereo not given) + Cc1c(S(C)(=O)=O)c(-c2cc(F)cc(N3CCN(c4ccc(NS(=O)(=O)c5ccc(NC(CCN6CCC(C(=O)OCCCP(=O)(O)O)CC6)CSc6ccccc6)c(S(=O)(=O)C(F)(F)F)c5)cc4)CC3)c2)c(-c2ccc(Cl)cc2)n1C(C)C
pIC50 (second compound 0.1 µM): < 7.00
pIC50 (second compound 0.316 µM): < 7.00
pIC50 (second compound 1 µM): < 7.00
pIC50 (second compound 3.16 µM): < 7.00
pIC50 (second compound 10 µM): < 7.00
viability, T/C (second compound 0.1 µM, first compound 0.000316 µM): 91.7%
viability, T/C (second compound 0.1 µM, first compound 0.001 µM): 100%
viability, T/C (second compound 0.1 µM, first compound 0.00316 µM): 84.5%
viability, T/C (second compound 0.1 µM, first compound 0.01 µM): 93.7%
viability, T/C (second compound 0.1 µM, first compound 0.0316 µM): 93.1%
viability, T/C (second compound 0.1 µM, first compound 0.1 µM): 85.7%
viability, T/C (second compound 0.316 µM, first compound 0.000316 µM): 91.8%
viability, T/C (second compound 0.316 µM, first compound 0.001 µM): 88.7%
viability, T/C (second compound 0.316 µM, first compound 0.00316 µM): 97%
viability, T/C (second compound 0.316 µM, first compound 0.01 µM): 96.7%
viability, T/C (second compound 0.316 µM, first compound 0.0316 µM): 97.5%
viability, T/C (second compound 0.316 µM, first compound 0.1 µM): 91.6%
viability, T/C (second compound 1 µM, first compound 0.000316 µM): 89.1%
viability, T/C (second compound 1 µM, first compound 0.001 µM): 88.7%
viability, T/C (second compound 1 µM, first compound 0.00316 µM): 89.8%
viability, T/C (second compound 1 µM, first compound 0.01 µM): 85.1%
viability, T/C (second compound 1 µM, first compound 0.0316 µM): 87.5%
viability, T/C (second compound 1 µM, first compound 0.1 µM): 80%
viability, T/C (second compound 3.16 µM, first compound 0.000316 µM): 79.4%
viability, T/C (second compound 3.16 µM, first compound 0.001 µM): 86.6%
viability, T/C (second compound 3.16 µM, first compound 0.00316 µM): 79.2%
viability, T/C (second compound 3.16 µM, first compound 0.01 µM): 75.9%
viability, T/C (second compound 3.16 µM, first compound 0.0316 µM): 78%
viability, T/C (second compound 3.16 µM, first compound 0.1 µM): 76%
viability, T/C (second compound 10 µM, first compound 0.000316 µM): 69.7%
viability, T/C (second compound 10 µM, first compound 0.001 µM): 73.5%
viability, T/C (second compound 10 µM, first compound 0.00316 µM): 69.3%
viability, T/C (second compound 10 µM, first compound 0.01 µM): 74%
viability, T/C (second compound 10 µM, first compound 0.0316 µM): 76.6%
viability, T/C (second compound 10 µM, first compound 0.1 µM): 71.1%

NC(=O)C(=Cn1cnc(-c2cc(C(F)(F)F)cc(C(F)(F)F)c2)n1)c1cncnc1 + CCN1C(C(=O)NC23CCC(C(=O)O)(CC2)CC3)C(c2cccc(Cl)c2F)C2(C(=O)Nc3cc(Cl)ccc32)C12CCCCC2
pIC50 (second compound 0.03 µM): 7.66
pIC50 (second compound 0.0949 µM): 7.61
pIC50 (second compound 0.3 µM): 7.58
pIC50 (second compound 0.949 µM): 7.58
pIC50 (second compound 3 µM): 7.57
viability, T/C (second compound 0.03 µM, first compound 0.000949 µM): 110%
viability, T/C (second compound 0.03 µM, first compound 0.003 µM): 99.3%
viability, T/C (second compound 0.03 µM, first compound 0.00949 µM): 79.1%
viability, T/C (second compound 0.03 µM, first compound 0.03 µM): 41.6%
viability, T/C (second compound 0.03 µM, first compound 0.0949 µM): 7.35%
viability, T/C (second compound 0.03 µM, first compound 0.3 µM): 4.55%
viability, T/C (second compound 0.0949 µM, first compound 0.000949 µM): 100%
viability, T/C (second compound 0.0949 µM, first compound 0.003 µM): 103%
viability, T/C (second compound 0.0949 µM, first compound 0.00949 µM): 85.2%
viability, T/C (second compound 0.0949 µM, first compound 0.03 µM): 42.6%
viability, T/C (second compound 0.0949 µM, first compound 0.0949 µM): 8.3%
viability, T/C (second compound 0.0949 µM, first compound 0.3 µM): 3.76%
viability, T/C (second compound 0.3 µM, first compound 0.000949 µM): 108%
viability, T/C (second compound 0.3 µM, first compound 0.003 µM): 101%
viability, T/C (second compound 0.3 µM, first compound 0.00949 µM): 90.4%
viability, T/C (second compound 0.3 µM, first compound 0.03 µM): 46.1%
viability, T/C (second compound 0.3 µM, first compound 0.0949 µM): 4.78%
viability, T/C (second compound 0.3 µM, first compound 0.3 µM): 5.31%
viability, T/C (second compound 0.949 µM, first compound 0.000949 µM): 116%
viability, T/C (second compound 0.949 µM, first compound 0.003 µM): 109%
viability, T/C (second compound 0.949 µM, first compound 0.00949 µM): 93.1%
viability, T/C (second compound 0.949 µM, first compound 0.03 µM): 46.6%
viability, T/C (second compound 0.949 µM, first compound 0.0949 µM): 4.71%
viability, T/C (second compound 0.949 µM, first compound 0.3 µM): 5.06%
viability, T/C (second compound 3 µM, first compound 0.000949 µM): 124%
viability, T/C (second compound 3 µM, first compound 0.003 µM): 119%
viability, T/C (second compound 3 µM, first compound 0.00949 µM): 106%
viability, T/C (second compound 3 µM, first compound 0.03 µM): 44.6%
viability, T/C (second compound 3 µM, first compound 0.0949 µM): 3.65%
viability, T/C (second compound 3 µM, first compound 0.3 µM): 4.05%
